# Reference: patent US20210154173A1, “PHARMACEUTICAL COMPOSITION INCLUDING CLAVULANIC ACID AND VALPROIC ACID, METHOD FOR TREATMENT OF EPILEPSY SEIZURE, AND METHOD FOR TREATMENT OF EPILEPSY-ASSOCIATED MOTOR SYMPTOM AND COGNITIVE IMPAIRMENT” (Arthur Wisdom Technology Consultants Ltd., priority 2019, published 2021)
# Assays:
# Type in all cases: in vivo, Wistar male rats
# [1] = test system: epilepsy rats (PTZ induced); assay: Seizure intensity by Racine score in PTZ-induced epilepsy rats (trial B); conditions: for seizure intensity (Racine score): 9th, 11th and 13th days
# Method: Wistar male rats (8 week-old) purchased from BioLASCO Taiwan Co., Ltd were used. The rats were housed in an animal room with constant temperature of 21-24° C., where was kept on a 12-hours light and 12-hours dark cycle. The rats were housed and kept on free diet and water. 3 days before the trials, motor functions of the rats were tested by the rotarod test. On the 1st, 3rd, 5th, 7th, 9th, 11th and 13th days, pentylenetetrazol (PTZ, 35 mg/kg) was IP injected to the rats to induce epilepsy rats of groups A1-A5. On the 21st day, after administration of PTZ, seizure intensity of the rats was measured. Referring to TABLE 1, on the 7th, 8th, 9th, 10th, 11th, 12th and 13th days, clavulanic acid and/or valproic acid was IP injected to the epilepsy rats of groups A2-A5. Saline (1 mL/kg/day) was IP injected to the normal rats of group A0, as well as the epilepsy rats of group A1. On the 1st, 3rd, 5th, 7th, 9th, 11th, 13th and 21st days, the seizure intensity of the rats of groups A0-A5 was measured by Racine score. The seizure intensity was scored according to Racine's scale as follows: 0=normal, nonepileptic activity, 1=mouth and facial movements, hyperactivity, grooming, sniffing, scratching, wet dog shakes, 2=head nodding, staring, tremor, 3=forelimb clonus, forelimb extension, 4=rearing, salivating, tonic clonic activity and 5=falling, status epilepticus.
# [2] = test system: epilepsy rats (PTZ induced); assay: Rotarod test of motor function (trial C); conditions: 14th day, 25 rpm for 3 minutes
# Method: Wistar male rats (8 week-old) purchased from BioLASCO Taiwan Co., Ltd were used. The rats were housed in an animal room with constant temperature of 21-24° C., where was kept on a 12-hours light and 12-hours dark cycle. The rats were housed and kept on free diet and water. 3 days before the trials, motor functions of the rats were tested by the rotarod test. On the 1st, 3rd, 5th, 7th, 9th, 11th and 13th days, pentylenetetrazol (PTZ, 35 mg/kg) was IP injected to the rats to induce epilepsy rats of groups A1-A5. On the 21st day, after administration of PTZ, seizure intensity of the rats was measured. Referring to TABLE 1, on the 7th, 8th, 9th, 10th, 11th, 12th and 13th days, clavulanic acid and/or valproic acid was IP injected to the epilepsy rats of groups A2-A5. Saline (1 mL/kg/day) was IP injected to the normal rats of group A0, as well as the epilepsy rats of group A1. On the 14th day, the motor function of the rats of groups A0-A5 was tested by rotarod test. On the 15th, 16th and 17th days, the cognitive impairment on object recognition ability of the rats of groups A0-A5 was tested by object recognition test. On the 18th, 19th and 20th days, the cognitive impairment on memory of the rats of groups A0-A5 was tested by passive avoidance test. Moreover, on the 22nd day, BrdU (5′-bromo-2′-deoxyuridine) was IP injected to the rats of groups A0-A5 to label the proliferating cells. On the 23rd day, the rats of groups A0-A5 were sacrificed and the coronal brain sections were collected. The sections with hippocampal dentate gyrus were used for BrdU staining. The number of BrdU-positive cells in hippocampal dentate gyrus was calculated. Next, motor function of the rats of groups A0-A5 was tested by rotarod test. Specifically, in the training session, the normal rat that had not yet been induced as epilepsy rat by PTZ was used as the rat R under the test. […] 3 trials were performed with a cutoff of 5 minutes. On the 14th day, the rats of groups A0-A5 were used as the rats R under the test. […]
# [3] = test system: epilepsy rats (PTZ induced); assay: Object recognition test (trial D); conditions: 17th day
# Method: (§1) Wistar male rats (8 week-old) purchased from BioLASCO Taiwan Co., Ltd were used. The rats were housed in an animal room with constant temperature of 21-24° C., where was kept on a 12-hours light and 12-hours dark cycle. The rats were housed and kept on free diet and water.
# (§2) 3 days before the trials, motor functions of the rats were tested by the rotarod test. On the 1st, 3rd, 5th, 7th, 9th, 11th and 13th days, pentylenetetrazol (PTZ, 35 mg/kg) was IP injected to the rats to induce epilepsy rats of groups A1-A5. On the 21st day, after administration of PTZ, seizure intensity of the rats was measured.
# (§3) Referring to TABLE 1, on the 7th, 8th, 9th, 10th, 11th, 12th and 13th days, clavulanic acid and/or valproic acid was IP injected to the epilepsy rats of groups A2-A5. Saline (1 mL/kg/day) was IP injected to the normal rats of group A0, as well as the epilepsy rats of group A1.
# On the 14th day, the motor function of the rats of groups A0-A5 was tested by rotarod test. On the 15th, 16th and 17th days, the cognitive impairment on object recognition ability of the rats of groups A0-A5 was tested by object recognition test. On the 18th, 19th and 20th days, the cognitive impairment on memory of the rats of groups A0-A5 was tested by passive avoidance test. […] The number of BrdU-positive cells in hippocampal dentate gyrus was calculated. […]
# On the 17th day, during the test session, the rat R under the test was placed in the open box, shown as FIG. 6a, and the time spent exploring the object O1 (TO1) and the total time spent exploring the objects O1, O2 & O3 (TO1+O2+O3) were recorded, respectively. The percentage of the exploration time spent on the object O1 was calculated as (TO1/TO1+O2+O3)*100%. […] The time spent exploring the novel object O4 (TO4) and the total time spent exploring the objects O2 & O3 and the novel object O4 (TO2+O3+O4) were respectively recorded, and the percentage of the exploration time spent on the novel object O4 was calculated as […].
# [4] = test system: epilepsy rats (PTZ induced); assay: Passive avoidance test in shuttle box (trial E); conditions: after retention session of 24 hours, p<0.05 compared to group A0
# Method: as §1, §2, §3
# On the 14th day, the motor function of the rats of groups A0-A5 was tested by rotarod test. […] The number of BrdU-positive cells in hippocampal dentate gyrus was calculated. […]
# After the retention session for 24 hours, the rat R under the test was placed in the light chamber C1, and the guillotine door D was opened, as shown in FIG. 8b. The latency to entrance into the dark chamber C2 was recorded. […]
# [5] = test system: epilepsy rats (PTZ induced); assay: BrdU staining of hippocampal dentate gyrus (trial F); conditions: 23rd day
# Method: as §1, §2, §3
# On the 14th day, the motor function of the rats of groups A0-A5 was tested by rotarod test. On the 15th, 16th and 17th days, the cognitive impairment on object recognition ability of the rats of groups A0-A5 was tested by object recognition test. On the 18th, 19th and 20th days, the cognitive impairment on memory of the rats of groups A0-A5 was tested by passive avoidance test. Moreover, on the 22nd day, BrdU (5′-bromo-2′-deoxyuridine) was IP injected to the rats of groups A0-A5 to label the proliferating cells. On the 23rd day, the rats of groups A0-A5 were sacrificed and the coronal brain sections were collected. The sections with hippocampal dentate gyrus were used for BrdU staining. The number of BrdU-positive cells in hippocampal dentate gyrus was calculated.
# On the 22nd day, BrdU was IP injected to the rats to label the proliferating cells. On the 23rd day, the rats of groups A0-A5 were sacrificed and the coronal sections of the brain were collected. The sections with hippocampal dentate gyrus were used for BrdU staining.
# [6] = group A4: valproic acid 50 mg/kg/day IP
Compound,seizure intensity (Racine score) ([1]; group A2: clavulanic acid 1 mg/kg/day IP days 7-13),"seizure intensity (Racine score) after drug holiday ([1]; group A3: clavulanic acid 10 mg/kg/day IP days 7-13, not treated days 14-20, 21st day, compared to group A1 (saline))",seizure intensity (Racine score) ([1]; group A3: clavulanic acid 10 mg/kg/day IP days 7-13),"riding time on rotarod ([2]; group A2: clavulanic acid 1 mg/kg/day IP, no difference between group A0)","riding time on rotarod ([2]; group A3: clavulanic acid 10 mg/kg/day IP, p<0.05 compared to group A1)","percentage of time exploring novel object O4 versus object O1 ([3]; group A2: clavulanic acid 1 mg/kg/day IP, p<0.01)","percentage of time exploring novel object O4 versus object O1 ([3]; group A3: clavulanic acid 10 mg/kg/day IP, p<0.05)",latency to entrance into the dark chamber C2 ([4]; group A2: clavulanic acid 1 mg/kg/day IP),"number of BrdU-positive cells in hippocampal dentate gyrus ([5]; group A2: clavulanic acid 1 mg/kg/day IP, no difference compared to group A0)","number of BrdU-positive cells in hippocampal dentate gyrus ([5]; group A3: clavulanic acid 10 mg/kg/day IP, no difference compared to group A0)",seizure intensity (Racine score) ([1]; group A4: valproic acid 50 mg/kg/day IP days 7-13),"riding time on rotarod ([2]; group A4: valproic acid 50 mg/kg/day IP, p<0.001 compared to group A0)","percentage of time exploring novel object O4 versus object O1 [3, 6]","latency to entrance into the dark chamber C2 [4, 6]","number of BrdU-positive cells in hippocampal dentate gyrus ([5]; group A4: valproic acid 50 mg/kg/day IP, p<0.05 compared to A0)"
O=C(O)[C@H]1/C(=C/CO)O[C@@H]2CC(=O)N21 [clavulanic acid],3-4,still significantly lower,decreases,significantly increase the riding time,significantly increase the riding time,can recognize the novel object O4,can recognize the novel object O4,also decreases,can recover the number of BrdU-positive cells to normal,can recover the number of BrdU-positive cells to normal,,,,,
CCCC(CCC)C(=O)O [valproic acid],,,,,,,,,,,did not decrease,cannot improve the motor coordination and balance problems,cannot improve the cognitive decline on recognition ability,cannot improve the cognitive impairment on memory,cannot improve the defect on neurogenesis
